Test results from PMC8557866, “Novel Small Molecule Growth Inhibitor Affecting Bacterial Outer Membrane Reduces Extraintestinal Pathogenic Escherichia coli (ExPEC) Infection in Avian Model” (Microbiology Spectrum, 2021).
Converted amounts (≈) assume the structure as drawn.

Experiments:
[1] = test system: APEC serotype O78; settings: for Cumulative lesion score: PC 6.2; for Mortality reduction compared to PC group: PC mortality 58.3%; for BWG (body weight gain): in vivo
Description: The efficacy of GIs was assessed using commercial broiler chickens (n = 6/group). […] GI compounds (ChemBridge, San Diego, CA) dissolved in dimethyl sulfoxide (DMSO) were administered orally using a syringe, twice a day, from day 4 (1 day before APEC infection) to day 8 (3 days postinfection [dpi]). The dose of each GI is described in Table S1. […] Chickens that were infected and vehicle-treated (positive control [PC]) and noninfected and nontreated (negative control [NC]) were included as controls. On day 5, chickens were infected subcutaneously (s.c.) with rifampin-resistant (Rif^r) APEC serotype O78 ([18]) (1 × 10^7 CFU/chicken). […] To prepare the APEC inoculum for infection, Rif^r APEC O78 (50 μg/ml rifampin) was grown to logarithmic phase in LB medium, washed twice with phosphate-buffered saline (PBS), and adjusted to an optical density at 600 nm (OD600) of 0.1 (5 × 10^7 CFU/ml). The clinical signs and mortality were recorded until 7 dpi. Chickens that died during this period were necropsied on the same day, lesions in internal organs (liver, heart, lung, and air sacs) were scored as described previously ([63], [71]), and the APEC loads were quantified in internal organs (liver, heart, lung, and kidney) by plating the tissue homogenates on MacConkey agar plates containing 50 μg/ml rifampin ([18]). At 7 dpi (day 12), all live birds were euthanized, lesions were scored, and the APEC loads in internal organs were quantified as described above. The body weight of chickens was measured before GI treatment (day 3) and at the day of necropsy (day 12).

[2] = test system: APEC O78; parameters: method as in PMID 30333507; settings: cited from earlier work
[3] = test system: APEC; experiment: microbe, parasite or virus in culture; format: cell-based, Escherichia coli; settings: Escherichia coli
[4] = Quantification of residue in chicken tissues (LC-MS); format: in vivo, chickens
Source text: Chickens (n = 5/time point) from an experimental set-up as described above for the floor trial were sacrificed at 2 days (day 13; 2 DPLT), 5 days (day 16; 5 DPLT), and 31 days (day 42; 31 DPLT) post-last treatment. […] Tissue samples from chickens treated with SDM were used for comparison. […] Details of the methods are included in the supplemental material.

[5] = Pharmacokinetic study in plasma of chickens (LC-MS); format: in vivo; settings: plasma
Description: Details of the methods are included in the supplemental material. page 3: previously(3). […] The mixtures were then incubated at […] for 30 min and proteins were removed by ultracentrifugation at 13,000xg for 25 min at 2 °C.

[6] = test system: APEC O78; experiment: Comparative efficacy of GI-7 and sulfadimethoxine, floor trial; format: in vivo, commercial broiler chickens; parameters: % reduction in severity, Liver lesions / % reduction in severity, Heart lesions / % reduction in severity, Lung lesions / % reduction in severity, Air sacs lesions: concentration or dose not given beside the values; Cumulative lesion score / Mean lesion score in Liver / Mean lesion score in Heart / Mean lesion score in Lung / Mean lesion score in Air sacs: scale not given here
Description: At day 13 (7 dpi), half of the chickens from each group, and at day 42 (slaughter age), 10 chickens from each group were necropsied and lesions and APEC loads were assessed as described above.

[7] = comparative efficacy trial, vs PC
[8] = comparative efficacy, GI-7 60 mg/liter, SDM 495.3 mg/liter, 7 dpi

CCN1/C(=C/c2ccc3ccccc3[n+]2CC)C=Cc2ccccc21 [GI-9]
Mean APEC load, Heart ([1]; efficacy trial, oral): 5.9 Log CFU/g tissues
Mean APEC load, Kidney ([1]; efficacy trial, oral): 5.7 Log CFU/g tissues
Mean APEC load, Liver ([1]; efficacy trial, oral): 4.7 Log CFU/g tissues
Mean APEC load, Lung ([1]; efficacy trial, oral): 5.6 Log CFU/g tissues
Mean lesion score in Air sacs ([1]; efficacy trial, oral): 2.7
Mean lesion score in Heart ([1]; efficacy trial, oral): 3.3
Mean lesion score in Liver ([1]; efficacy trial, oral): 2.5
Cumulative lesion score ([1]; efficacy trial, oral): 9.7
Mortality reduction compared to PC group ([1]; efficacy trial, oral): 25%
% reduction in severity, Air sacs lesions ([1]; efficacy trial, oral, vs PC): −88.2%
% reduction in severity, Heart lesions ([1]; efficacy trial, oral, vs PC): −60%
% reduction in severity, Liver lesions ([1]; efficacy trial, oral, vs PC): −50%
log reduction in APEC load, Heart ([1]; efficacy trial, oral, vs PC): -0.5 Log CFU/g tissues
log reduction in APEC load, Kidney ([1]; efficacy trial, oral, vs PC): -0.2 Log CFU/g tissues
log reduction in APEC load, Liver ([1]; efficacy trial, oral, vs PC): -0.1 Log CFU/g tissues
log reduction in APEC load, Lung ([1]; efficacy trial, oral, vs PC): -0.9 Log CFU/g tissues
BWG (body weight gain) [1]: 214.9±31.9
MIC [2]: 25 µM

CC(=O)OC(C(Br)C(=O)c1ccc([N+](=O)[O-])cc1)C(Cl)(Cl)Cl (centres unmarked) [GI-10]
Mean APEC load, Heart ([1]; efficacy trial, oral): 3.9 Log CFU/g tissues
Mean APEC load, Kidney ([1]; efficacy trial, oral): 3.1 Log CFU/g tissues
Mean APEC load, Liver ([1]; efficacy trial, oral): 3.9 Log CFU/g tissues
Mean APEC load, Lung ([1]; efficacy trial, oral): 3.7 Log CFU/g tissues
Mean lesion score in Air sacs ([1]; efficacy trial, oral): 1.7
Mean lesion score in Heart ([1]; efficacy trial, oral): 2.2
Mean lesion score in Liver ([1]; efficacy trial, oral): 1.3
Mean lesion score in Lung ([1]; efficacy trial, oral): 1
Survival of chickens ([1]; efficacy trial, oral, P ≤ 0.1, log rank test): prolonged the survival
Cumulative lesion score ([1]; efficacy trial, oral): 6.2
Mortality reduction compared to PC group ([1]; efficacy trial, oral): 41.7%
% reduction in severity, Air sacs lesions ([1]; efficacy trial, oral, vs PC): −17.6%
% reduction in severity, Heart lesions ([1]; efficacy trial, oral, vs PC): −4%
% reduction in severity, Liver lesions ([1]; efficacy trial, oral, vs PC): 20%
% reduction in severity, Lung lesions ([1]; efficacy trial, oral, vs PC): 0%
log reduction in APEC load, Heart ([1]; efficacy trial, oral, vs PC): 1.0 Log CFU/g tissues
log reduction in APEC load, Kidney ([1]; efficacy trial, oral, vs PC): 2.4 Log CFU/g tissues
log reduction in APEC load, Liver ([1]; efficacy trial, oral, vs PC): 0.8 Log CFU/g tissues
log reduction in APEC load, Lung ([1]; efficacy trial, oral, vs PC): 1.4 Log CFU/g tissues
BWG (body weight gain) [1]: 220.8±38.9
MBC [3]: 50 µM (≈ 21.7 µg/mL)
MIC [3]: 25 µM (≈ 10.8 µg/mL)
MIC [2]: 25 µM (≈ 10.8 µg/mL)

COc1cc(NS(=O)(=O)c2ccc(N)cc2)nc(OC)n1 [SDM, sulfadimethoxine, reference compound]
Residue concentration in muscle ([4]; 2 DPLT): 0.2 ± 0.1 ppm/g tissue
Residue level in kidney ([4]; 2 DPLT): 1.0 ± 0.2 ppm/g tissue
Residue level in liver ([4]; 2 DPLT): 0.2 ± 0.04 ppm/g tissue
Residue concentration in muscle ([4]; 5 DPLT): 0.02 ± 0.02 ppm/g tissue
Residue level in kidney ([4]; 5 DPLT): 1 ± 0.1 ppm/g tissue
Residue level in liver ([4]; 5 DPLT): 0.04 ± 0.02 ppm/g tissue
Residue concentration in muscle ([4]; 31 DPLT): 0.0 ± 0.0 ppm/g tissue
Residue level in kidney ([4]; 31 DPLT): 0.0 ± 0.0 ppm/g tissue
Residue level in liver ([4]; 31 DPLT): 0.0 ± 0.0 ppm/g tissue
Cmax ([5]; commercial broiler, po, mean ± standard deviation, read-out: Peak plasma concentration (Cmax)): 0.994 ± 0.167 µg/mL
Tmax ([5]; commercial broiler, po, postadministration, read-out: Time to maximum concentration (Tmax)): 24 h
Absorption (time at which absorbed) ([5]; drinking water delivery): 2 h
Mortality reduction compared to PC group ([6]; GI-7 60 mg/liter, SDM 495.3 mg/liter in drinking water, PC mortality 41.2%): 11.9%
Mean APEC load, Heart ([6]; comparative efficacy trial): 5.6 Log CFU/g tissues
Mean APEC load, Kidney ([6]; comparative efficacy trial): 5.5 Log CFU/g tissues
Mean APEC load, Liver ([6]; comparative efficacy trial): 5.0 Log CFU/g tissues
Mean APEC load, Lung ([6]; comparative efficacy trial): 6.2 Log CFU/g tissues
log reduction in APEC load, Heart [6, 7]: 2.3 Log CFU/g tissues
log reduction in APEC load, Kidney [6, 7]: 2.2 Log CFU/g tissues
log reduction in APEC load, Liver [6, 7]: 2.5 Log CFU/g tissues
log reduction in APEC load, Lung [6, 7]: 1.9 Log CFU/g tissues
Cumulative lesion score ([6]; comparative efficacy, 7 dpi): 8.5
Mean lesion score in Air sacs [6, 8]: 2.5
Mean lesion score in Heart [6, 8]: 2.8
Mean lesion score in Liver [6, 8]: 2.0
Mean lesion score in Lung [6, 8]: 1.2
% reduction in severity, Air sacs lesions ([6]; comparative efficacy, vs PC): 25.7%
% reduction in severity, Heart lesions ([6]; comparative efficacy, vs PC): 20.8%
% reduction in severity, Liver lesions ([6]; comparative efficacy, vs PC): 19.2%
% reduction in severity, Lung lesions ([6]; comparative efficacy, vs PC): 36.9%
Survival of chickens ([6]; floor trial, P < 0.1): increased the survival
Overall BWG ([6]; in vivo): 2,408.1 g
Overall FCR ([6]; in vivo): 1.49
